In PubChem BioAssay (NCI):
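Assay format: 96-well plates, 48-hour exposure. Here, GI50 denotes the concentration required for 50% inhibition of growth. TGI marks complete inhibition of growth.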

Experiments:
Test in all cases: NCI tumour cell line growth inhibition, 48 h
[1] = test system: NCI/ADR-RES ovarian
[2] = test system: KM12 colon
[3] = test system: IGROV1 ovarian
[4] = test system: COLO 205 colon
[5] = test system: EKVX NSCLC
[6] = test system: PC-3 prostate
[7] = test system: HCT-116 colon
[8] = test system: K-562 leukemia
[9] = test system: SF-295 CNS
[10] = test system: MALME-3M melanoma

Compound | GI50 [1] [µM] | TGI [1] [µM] | GI50 [2] [µM] | TGI [2] [µM] | GI50 [3] [µM] | TGI [3] [µM] | GI50 [4] [µM] | TGI [4] [µM] | GI50 [5] [µM] | TGI [5] [µM] | GI50 [6] [µM] | TGI [6] [µM] | GI50 [7] [µM] | TGI [7] [µM] | GI50 [8] [µM] | TGI [8] [µM] | GI50 [9] [µM] | TGI [9] [µM] | GI50 [10] [µM] | TGI [10] [µM]
CC1=C[C@@H]2c3c(c(O)c(O)c4oc5cc(O)cc(O)c5c(=O)c34)[C@@H](c3cc(O)c(O)c4oc5cc(O)cc(O)c5c(=O)c34)[C@@H]2C(C)(C)C1 | 10.2 | 27.1 | 3.1 | 12.2 | 4.01 | 22.2 | 2.86 | 11.2 | 5 | 15.6 | 3.33 | 14 | 2.7 | 9.85 | 2.34 | 80 | 2.87 | 11.3 | 8.53 | 25.2
COc1ccc2c(c1)-c1c(c3cc(OC)ccc3n(CCN(C)C)c1=O)C2=O | 0.659 | 7.41 | 0.304 | 1.28 | 0.243 | 2.31 | 0.461 | 4.7 | 1.37 | 10.2 | 1.49 | 8.88 | 0.241 | 6.85 | 0.28 | 3.09 | 0.714 | 2.99 | 1.17 | 5.65
COC(=O)CC1=C(C)/C(=C/c2[nH]c(-c3ccc[nH]3)cc2OC)N=C1C | 0.324 | 2.34 | 0.118 | 2.12 | 0.34 | 6.69 | 0.123 | 0.814 | 0.584 | 10.1 | 0.21 | 11.2 | 0.0819 | 1.16 | 0.218 | 10.6 | 0.332 | 1.69 | 0.72 | 2.35
C=C(C)C(=O)Nc1ccc(-c2c(-c3ccc(Oc4nccc(C)n4)c(F)c3)c3c(N)ncnc3n2C)cc1 | 10.1 | 31 | 3.87 | 17 | 3.1 | 17.4 | 3.79 | 13.8 | 3.43 | 17.1 | 6.78 | 67.5 | 5.05 | 19.8 | 3.43 | > 100 | 2.59 | 13.4 | 3.29 | 17
NS(=O)(=O)c1ccc(N=Nc2c[nH]c(=O)c(O)c2)cc1 | – | > 100 | – | > 100 | – | > 100 | – | > 100 | – | > 100 | – | > 100 | – | > 100 | – | > 100 | – | > 100 | – | 82.4
CCN1C(=O)N(CC)C2C1N=C(SC)N2/N=C/C=C/c1ccccc1OC (configuration not stated) | 0.329 | – | 0.404 | > 39.6 | 0.618 | > 45.1 | 0.324 | – | 0.581 | > 56.6 | 0.47 | > 45.3 | 0.375 | 24.8 | 0.361 | > 42.8 | 0.358 | > 37.4 | 1.01 | > 42.8
N#Cc1c(N)nc(N2CCOCC2)c(C#N)c1-c1c(Cl)cccc1Cl | 2.34 | 7.46 | 6.42 | 77.8 | 1.98 | 5.08 | 7.14 | 22.8 | 7.92 | > 100 | 5.64 | 31.1 | 3.07 | 12.2 | 3.3 | 11.7 | 4.4 | 43.2 | 3.72 | 13.5
FC(F)(F)c1cccc(-c2[nH]ncc2-c2nnnn2-c2ccccc2)c1 | 3.17 | 25.2 | 4.08 | 22.2 | 3.96 | 15.4 | 3.49 | 13 | 8.43 | 29.7 | 6.3 | 51.2 | 4.7 | 19.4 | 3.3 | 15.8 | 2.49 | 9.04 | 3.66 | 13.3
Oc1[nH]c2ccccc2c1C=Nc1ccc(-n2cncn2)cc1 | 15.7 | > 25 | 0.991 | > 25 | > 25 | > 25 | > 25 | > 25 | > 25 | > 25 | > 20.1 | > 25 | > 22.1 | > 25 | 13.6 | > 25 | > 25 | > 25 | > 16 | > 25
COc1ccc2nc3ccccc3c(NCCNCC(C)O)c2c1 (configuration not stated) | 5.11 | 39.4 | 0.536 | 14.2 | 0.387 | 5.93 | 0.192 | 0.704 | 1.1 | 7.82 | 0.537 | 4.82 | 0.241 | 1.41 | 0.33 | – | 0.36 | 4.02 | 0.426 | 1.72
